In patent publication US4315032A, “Process for preparation of adjacently disubstituted ketones” (Teitin Limited, priority 1979, dated 1982):
Read-outs that look alike come from different tables or passages of the source.

How the values were obtained:
[1] = tested on: ulcer formation induced by indomethacin; experiment: inhibiting action on the formation of ulcer in rats induced by indomethacin; format: in vivo, Male rats (Sprague Dawley species); details: indomethacin 20 mg/kg peroral, compound 0.5 × 2 mg/kg, S.C.; for Inhibiting rate (%): inhibition of ulcer formation
Method: By the method of Y. H. Lee et al. [Arch. Int. Pharmacodyn. Ther., 192, 370 (1971)], the inhibiting action of the compound No. 122 in Example 11 and compound No. 158 in Example 21 on the formation of ulcer in rats induced by indomethacin, a typical non-steroid anti-inflammatory agent, was evaluated.
Male rats (Sprague Dawley species; body weight 240-270 g) were used in the experiment. These rats had been caused to fast for 24 hours in separate cages before the initiation of the experiment. Indomethacin was orally administered to these rats, and 6 hours later, they were killed. Formation of ulcer in the fundus part was examined by measuring the area of the ulcer-forming part under a microscope. The compounds Nos. 122 and 158 were each subcutaneously administered at the end of 30 minutes and 2 hours, respectively, after the administration of indomethacin. The ulcer formation inhibiting rate of these compounds against a predetermined dose of indomethacin was determined.
The indomethacin was administered as a 0.5 ml aqueous suspension (containing two drops of a Tween-type nonionic surfactant per 14 ml of water). The compounds Nos. 122 and 158 were given in the form of a solution in a phosphate buffer (pH 7.4).

[2] = tested on: platelet aggregation (rabbit PRP); experiment: Activity of Inhibiting Platelet Aggregation In Vitro (rabbit PRP, ADP); format: cell-based; details: ADP-disodium salt 5 μM final, 37° C., 2 min pre-incubation, minimum concentration whose inhibiting rate exceeded 50%
Method: The platelet aggregation inhibiting activities of test compounds including 7-hydroxy PGE1 of this invention were tested using rabbit PRP. The results are shown in terms of their concentrations at 50% inhibition (IC50) of platelet aggregation. As an aggregating agent, ADP-disodiumsalt having a final concentration of 5 μM was used.
(1) Preparation of platelet-enriched plasma (PRP)
Citrated blood (consisting of 1 part by volume of […] sodium citrate and 9 parts by volume of the blood) was prepared by taking blood from the ear veins of male rabbits having a body weight of 2.0 to 3.0 kg (white ordinary species). The citrated blood was centrifuged at 100 G for 10 minutes at room temperature, and the supernatant (PRP) was separated.
The PRP obtained was stored at room temperature, and used as early as possible. PRP stored for more than 4 hours after preparation was not used.
(2) Preparation of test drugs
Each test drug was dissolved in ethyl alcohol to a concentration of 10 mg/ml or 1 mg/ml, and diluted with physiological saline to adjust its concentration.
(3) Preparation of the aggregating agent
ADP disodium salt (a product of Kyowa Hakko Kabushiki Kaisha) was dissolved in 0.1 M tris-HCl buffer (pH 7.8) to prepare a solution having a concentration of 50 μM (final concentration 5 μM).
(1) Degree of platelet aggregation in a blank
Physiological saline (25 μl) and 25 μl of the aggregating agent solution were added to 200 μl of PRP which had been warmed in a cuvette at 37° C. of an aggregometer to aggregate platelet. The aggregation curve was recorded for 3 minutes by an aggregometer (a product of Rika Denki Kabushiki Kaisha). The maximum degree of aggregation in this platelet aggregation was defined as the maximum degree of aggregation of the blank.
(2) Test for inhibition of platelet aggregation
The solution of test drug (25 μl) was added to 200 of PRP, and the mixture was pre-incubated for 2 minutes in a cuvette of an aggregometer. Then, 25 μl of the ADP disodium solution (50 μM) was added, and the aggregation curve was recorded for 3 minutes. The maximum degree of platelet aggregation within this period was measured, and the inhibiting rate was calculated from the following equation. The mimimum concentration (expressed as final concentration) of the drug whose inhibiting rate exceeded 50% was shown as an IC50 value. [formula]
For details of the in vitro platelet aggregation inhibiting test, see H. M. Davis, J. Phyllis, K. Paul and W. Terry: Thromb. Res. 11, 217-226 (1977) and R. E. Anderson and J. G. Foulks: Thromb. Haemos. 36, 343-359 (1976).

CCCCCC(O)/C=C/C1C(O)CC(=O)C1C(O)CCCCCC(=O)OC (stereo not drawn) [No. 122, 2-(1-hydroxy-7-keto-8-oxanonyl)-3-(3-hydroxy-1-trans-octenyl)-4-hydroxycyclopentanone]
Ulcer formation (ulcer coefficient) Average value ± S.E.M. [1]: 12.1 ± 4.1 | Inhibiting rate (%) [1]: 40.4%

CCCCCC(O)/C=C/C1C(O)CC(=O)C1C(O)CCCCCC(=O)OC (stereo not drawn) [No. 144, dl 2-(1-hydroxy-7-keto-8-oxanonyl)-3-(3-hydroxy-1-trans-octenyl)-4-hydroxycyclopentanone]
IC50 [2]: > 10 µg/mL

CCCCCC(O)/C=C/C1C(O)CC(=O)C1C(O)CCCCCC(=O)OC (stereo not drawn) [No. 146, dl 2-(1-hydroxy-7-keto-8-oxanonyl)-3-(3-hydroxy-1-trans-octenyl)-4-hydroxycyclopentanone]
IC50 [2]: 24.5 µg/mL

CCCCCC(O)/C=C/C1C(O)CC(=O)C1C(O)CCCCCC(=O)OC (stereo not drawn) [No. 148, dl 2-(1-hydroxy-7-keto-8-oxanonyl)-3-(3-hydroxy-1-trans-octenyl)-4-hydroxycyclopentanone]
IC50 [2]: > 10 µg/mL

CCCCCC(O)/C=C/C1C(O)CC(=O)C1C(O)CCCCCC(=O)OC (stereo not drawn) [No. 150, dl 2-(1-hydroxy-7-keto-8-oxanonyl)-3-(3-hydroxy-1-trans-octenyl)-4-hydroxycyclopentanone]
IC50 [2]: > 10 µg/mL

CCCCC[C@H](O)/C=C/C1C(C(O)CCCCCC(=O)OC)C(=O)C[C@H]1O (stereo partly drawn) [No. 156, 2-(1-hydroxy-7-keto-8-oxanonyl)-3-[3(S)-hydroxy-1-trans-octenyl]-4(R)-hydroxycyclopentanone]
IC50 ([2]; Oryctolagus cuniculus, Platelet, read-out: IC50): 26.3 µg/mL

CCCCC[C@H](O)/C=C/C1C(C(O)CCCCCC(=O)OC)C(=O)C[C@H]1O (stereo partly drawn) [No. 158, 2-(1-hydroxy-7-keto-8-oxanonyl)-3-[3(S)-hydroxy-1-trans-octenyl]-4(R)-hydroxycyclopentanone]
Ulcer formation (ulcer coefficient) Average value ± S.E.M. [1]: 15.8 ± 5.1 | Inhibiting rate (%) [1]: 22.2% | IC50 [2]: 41.5 µg/mL
